How the values were obtained:
α1^K104D β2 γ2 GABAAR = target: T1, α1^K104D β2 γ2 GABAAR (Rattus norvegicus, UniProt P62813+P63138, K131D); assay: Patch clamp, HEK293, mutant GABAAR; format: cell-based; conditions: Glu 1 mM; GABA 1 µM; normalized to wild-type α1β2γ2
T1 construct: expressed in transfected cells; host or cells: HEK293
Text: The subunits are color-coded individually. The boxed regions are further enlarged in the middle panels, highlighting the predicted glutamate binding pocket in the α+ and β− interface, just below the loop C. […] Relative potentiation was obtained by normalizing potentiation observed in the mutated receptor to that in the respective wild-type receptor.
To positively confirm one of these two putative binding sites involved in glutamate binding, we performed a systemic mutational analysis of critical amino acids around these two sites followed by electrophysiological characterizations of their impacts on glutamate potentiation in HEK293 cells expressing wild-type or mutated α1β2γ2 GABAARs (Table 1).
(§1) HEK293 cells were cultured in DMEM (Invitrogen) supplemented with 10% fetal bovine serum. Cells were grown to 40–60% confluence and transiently transfected using Lipofectamine 2000 (Invitrogen) with 1:0.5–1 plasmid/lipid ratio. Cells were transfected with a pBK-CMV expression vector containing a rat recombinant GABAAR α, β or γ subunits. Co-transections were done with a plasmid ratio of 1:1 αβ and 2:2:1 for αβγ subunit combinations, respectively. pcDNA3.1-GFP was also co-transfected along with GABAAR subunits as a transfected marker in order to facilitate the visualization of the transfected cells during electrophysiological experiments. Cells were re-plated on glass coverslips after 15–20 h transfection and were cultured for an additional 15–24 h before whole-cell patch-clamp recordings.
(§2) The site-directed mutagenesis of α, β or γ subunits were performed by using the QuikChange method (Stratagene). […] Wild-type or mutant subunits were transfected in HEK293 cells and subjected to electrophysiology examinations.
(§3) Whole-cell patch-clamp recordings were performed under voltage-clamp mode using an Axopatch 200B or 1D patch-clamp amplifier (Molecular Devices) on HEK293 cells and cultured neurons. Whole-cell currents were recorded at a holding potential of −60 mV, and signals were filtered at 2 kHz, digitized at 10 kHz (Digidata 1322 A). Recording pipettes (3–5 MΩ) were filled with the intracellular solution that contained (mM): CsCl 140, HEPES 10, Mg-ATP 4, QX-314 5, pH 7.20; osmolarity, 290–295 mOsm. BAPTA (10 mM) was added in the intracellular solution. The coverslips were continuously superfused with the extracellular solution containing (mM): NaCl 140, KCl 5.4, HEPES 10, MgCl2 1.0, CaCl2 1.3, glucose 20, pH 7.4; osmolarity, 305–315 mOsm. […] Dose–response curves were created by fitting data to Hill equation: I = Imax/[1 + (EC50/[A])^n], where I is the current, Imax is the maximum current, [A] is a given concentration of agonist, n is the Hill coefficient. […] All experiments were performed at room temperature.

α1β2γ2E168K GABAAR = target: T2, α1β2γ2E168K GABAAR (Rattus norvegicus, UniProt P18508+P62813+P63138, E206K); assay: Patch clamp, HEK293, mutant GABAAR; format: cell-based
T2 construct: expressed in transfected cells; host or cells: HEK293
Method: However, for the GABAAR containing only α and β subunits, there are two α^+/β^− interfaces, with potentially two glutamate-binding pockets (Fig. 5a; Right).
as §1, §2, §3

α1β2 GABAARs = target: T3, α1β2 GABAARs (Rattus norvegicus, UniProt P62813+P63138); assay: [3H]glutamate binding assay, plasma membranes of HEK293 cells overexpressing α1 and β2; conditions: 40 nM [3H]glutamate + 0.4 mM non-radiolabeled competitor
T3 construct: expressed in transfected cells; host or cells: HEK293
Method: For membrane preparation, transfected or non-transfected HEK293 cells were washed twice with cold PBS and harvested by scraping into 5 ml cold PBS. Cells were then centrifuged at 1200 × g for 12 min at 4 °C and medium was removed. The washing procedure was repeated twice. Then the cell pellet was re-suspended into 1 ml of 50 mM Tris-HCl buffer (pH 7.4, with protease inhibitor) and homogenized using syringes with 18-G, 21-G and 23-G needles.
To separate the membrane, the homogenate were centrifuged for 20 min at 20,000 × g at 4 °C. Then the pellet was re-suspended into 1 ml of 50 mM Tris-HCl buffer, pH 7.4 and centrifuged again. After repeating this procedure for one more time, the pellet was re-suspended into 1 ml of 50 mM Tris-HCl buffer, pH 7.4 and the protein concentration was measured.
To conduct the binding assay, 100 µg membrane enriched preparation was incubated with 40 nM [3H]-Glutamate in a total volume of 0.5 ml in 50 mM Tris-HCl buffer, pH 7.4 for 1 h on ice. […] Then the reaction was terminated by quickly filtering the solution on Whatman filter paper and washing by 3.5 ml Tris-HCl buffer. Radioactivity was measured in a Beckman liquid scintillation counter.

rat α1β2γ2 GABAARs = target: T4, rat α1β2γ2 GABAARs (Rattus norvegicus, UniProt P62813+P63138); assay: Whole-cell patch clamp of GABA-evoked currents, HEK293 cells expressing wild-type α1β2γ2; format: cell-based
T4 construct: expressed in transfected cells; host or cells: HEK293
Method: Co-expression of the α and β subunits is the minimum requirement for a functional recombinant GABAAR expressed in a heterologous cell line such as HEK293, while co-expression of the α, β and γ subunits is required for the recombinant receptor with a full pharmacological profile.[2] We therefore transiently expressed either rat α1β2 or α1β2γ2 subunits in HEK293 cells.
as §1, §3

α2E137Gβγ GABAAR = target: T5, α2E137Gβγ GABAAR (Rattus norvegicus, UniProt P23576+P63138, E165G); assay: Patch clamp, HEK293, mutant GABAAR; format: cell-based; conditions: HEK293, read-out: Glutamate potentiation of GABA currents, % of control, normalized to respective wild-type receptor
T5 construct: expressed in transfected cells; host or cells: HEK293
Method: (§4) Fig. 4 Property characterization of glutamate binding sites in HEK cells expressing wild-type or mutated αβγ GABAARs. a, b The effects of electrostatic charge and/or size of the pocket-forming residues on glutamate-induced functional modulation.
as §1, §2, §3

αβ1E182Gγ GABAAR = target: T6, αβ1E182Gγ GABAAR (Rattus norvegicus, UniProt P15431+P62813, E207G); assay: Patch clamp, HEK293, mutant GABAAR; format: cell-based; conditions: HEK293, read-out: Glutamate potentiation of GABA currents, % of control, normalized to respective wild-type receptor
T6 construct: expressed in transfected cells; host or cells: HEK293
Method: as §4, §1, §2, §3

α2K155Dβγ GABAAR = target: T7, α2K155Dβγ GABAAR (Rattus norvegicus, UniProt P23576+P63138, K183D); assay: Patch clamp, HEK293, mutant GABAAR; format: cell-based; conditions: HEK293, read-out: Glutamate potentiation of GABA currents, % of control, normalized to respective wild-type receptor
T7 construct: expressed in transfected cells; host or cells: HEK293
Method: as §4, §1, §2, §3

α2K104Dβγ GABAAR = target: T8, α2K104Dβγ GABAAR (Rattus norvegicus, UniProt P23576+P63138, K132D); assay: Patch clamp, HEK293, mutant GABAAR; format: cell-based; conditions: HEK293, read-out: Glutamate potentiation of GABA currents, % of control, normalized to respective wild-type receptor
T8 construct: expressed in transfected cells; host or cells: HEK293
Method: as §4, §1, §2, §3

αβ3E182Gγ GABAAR = target: T9, αβ3E182Gγ GABAAR (Rattus norvegicus, UniProt P62813+P63079, E207G); assay: Patch clamp, HEK293, mutant GABAAR; format: cell-based; conditions: HEK293, read-out: Glutamate potentiation of GABA currents, % of control, normalized to respective wild-type receptor
T9 construct: expressed in transfected cells; host or cells: HEK293
Method: as §4, §1, §2, §3

N[C@@H](CCC(=O)O)C(=O)O [glutamate, Glutamate]
Relative potentiation, % of control (α1^K104D β2 γ2 GABAAR): 18.6 ± 6.3% | Glu-induced potentiation, % of wild-type α1β2γ2 (α1β2γ2E168K GABAAR; Glu 100 μM): 169.4 ± 32.5% | Glu-induced potentiation, % of wild-type α1β2γ2 (α1β2γ2E168K GABAAR; Glu 1 mM): 225.7 ± 51.9% | [3H]glutamate binding activity in presence of competitor (α1β2 GABAARs): 262.2 ± 47.8 CPM | GABA currents in presence of ligand, compared with GABA alone (rat α1β2γ2 GABAARs): 169.3 ± 6.9% | Relative potentiation (rat α1β2γ2 GABAARs): 100.0% | activity at 100 µM (α2E137Gβγ GABAAR; Glu 100 μM): 0.3 ± 3.4% | activity at 1000 µM (α2E137Gβγ GABAAR; Glu 1 mM): 5.7 ± 6.2% | activity at 100 µM (αβ1E182Gγ GABAAR; Glu 100 μM): 2.4 ± 2% | activity at 1000 µM (αβ1E182Gγ GABAAR; Glu 1 mM): 7.6 ± 1% | activity at 100 µM (α2K155Dβγ GABAAR; Glu 100 μM): 6.3 ± 6.9% | activity at 1000 µM (α2K155Dβγ GABAAR; Glu 1 mM): 5.3 ± 2.1% | activity at 100 µM (α2K104Dβγ GABAAR; Glu 100 μM): 2.7 ± 3.1% | activity at 1000 µM (α2K104Dβγ GABAAR; Glu 1 mM): 15.1 ± 4.4% | activity at 100 µM (αβ3E182Gγ GABAAR; Glu 100 μM): 2.3 ± 5% | activity at 1000 µM (αβ3E182Gγ GABAAR; Glu 1 mM): 2.4 ± 7.9%

From paper PMC9527238, “Glutamate and GABAA receptor crosstalk mediates homeostatic regulation of neuronal excitation in the mammalian brain” (Signal Transduction and Targeted Therapy, 2022)
